{"source": "paper PMC11187827", "about": "(Journal of natural products, 2020)", "key": {"[1]": {"biological_target": "SERT (serotonin transporter) (Homo sapiens, UniProt P31645)", "sequence (P31645 whole entry, species assumed)": "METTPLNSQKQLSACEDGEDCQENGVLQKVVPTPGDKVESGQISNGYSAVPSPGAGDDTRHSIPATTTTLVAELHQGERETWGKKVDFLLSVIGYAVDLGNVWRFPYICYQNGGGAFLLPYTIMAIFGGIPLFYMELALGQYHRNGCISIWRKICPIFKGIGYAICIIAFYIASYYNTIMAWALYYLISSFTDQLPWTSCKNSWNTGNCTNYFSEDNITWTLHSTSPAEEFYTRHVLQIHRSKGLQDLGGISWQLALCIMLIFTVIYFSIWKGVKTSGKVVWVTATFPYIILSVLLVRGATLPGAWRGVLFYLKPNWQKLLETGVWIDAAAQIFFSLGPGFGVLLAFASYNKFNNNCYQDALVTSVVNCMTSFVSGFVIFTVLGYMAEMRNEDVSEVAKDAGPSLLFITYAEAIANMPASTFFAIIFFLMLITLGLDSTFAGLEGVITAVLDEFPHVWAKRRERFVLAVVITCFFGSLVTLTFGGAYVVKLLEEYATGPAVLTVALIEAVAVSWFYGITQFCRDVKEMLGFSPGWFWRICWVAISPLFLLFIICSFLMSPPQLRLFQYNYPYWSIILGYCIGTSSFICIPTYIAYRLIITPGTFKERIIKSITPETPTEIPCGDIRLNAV", "assay": "receptor binding assay"}, "[2]": {"biological_target": "NET (norepinephrine transporter) (Homo sapiens, UniProt P23975)", "sequence (P23975 whole entry)": "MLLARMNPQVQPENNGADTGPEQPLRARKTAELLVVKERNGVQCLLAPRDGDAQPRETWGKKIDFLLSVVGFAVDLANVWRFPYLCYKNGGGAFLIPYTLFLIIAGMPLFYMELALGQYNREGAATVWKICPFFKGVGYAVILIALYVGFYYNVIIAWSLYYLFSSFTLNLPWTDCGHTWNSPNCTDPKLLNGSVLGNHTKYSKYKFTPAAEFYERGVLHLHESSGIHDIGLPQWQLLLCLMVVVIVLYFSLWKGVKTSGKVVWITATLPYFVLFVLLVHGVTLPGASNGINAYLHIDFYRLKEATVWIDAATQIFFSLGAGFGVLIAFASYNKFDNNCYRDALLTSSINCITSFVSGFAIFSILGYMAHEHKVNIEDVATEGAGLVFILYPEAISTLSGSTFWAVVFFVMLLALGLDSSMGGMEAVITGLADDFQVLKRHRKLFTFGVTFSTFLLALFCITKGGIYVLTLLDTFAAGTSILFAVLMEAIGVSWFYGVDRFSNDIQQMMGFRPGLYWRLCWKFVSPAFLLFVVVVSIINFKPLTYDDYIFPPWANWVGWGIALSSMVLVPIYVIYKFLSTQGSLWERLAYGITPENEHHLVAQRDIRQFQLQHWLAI", "assay": "receptor binding assay"}, "[3]": {"biological_target": "DAT (dopamine transporter) (Homo sapiens, UniProt Q01959)", "sequence (Q01959 whole entry, species assumed)": "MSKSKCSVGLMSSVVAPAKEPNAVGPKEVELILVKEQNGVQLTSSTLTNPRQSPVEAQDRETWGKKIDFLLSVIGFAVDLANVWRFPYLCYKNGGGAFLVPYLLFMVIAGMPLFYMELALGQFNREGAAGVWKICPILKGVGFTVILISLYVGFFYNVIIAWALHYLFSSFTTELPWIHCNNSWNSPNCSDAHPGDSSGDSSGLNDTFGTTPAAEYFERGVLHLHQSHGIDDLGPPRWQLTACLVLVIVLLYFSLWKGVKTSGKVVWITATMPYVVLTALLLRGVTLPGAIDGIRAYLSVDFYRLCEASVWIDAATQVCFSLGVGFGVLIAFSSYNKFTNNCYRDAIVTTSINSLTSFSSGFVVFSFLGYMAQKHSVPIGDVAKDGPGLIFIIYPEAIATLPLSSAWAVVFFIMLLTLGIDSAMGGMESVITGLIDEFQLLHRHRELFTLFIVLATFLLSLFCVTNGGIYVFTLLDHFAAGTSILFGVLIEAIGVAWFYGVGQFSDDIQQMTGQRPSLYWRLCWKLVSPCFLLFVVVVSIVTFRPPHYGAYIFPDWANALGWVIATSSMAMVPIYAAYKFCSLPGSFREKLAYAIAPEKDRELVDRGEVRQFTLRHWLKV", "assay": "receptor binding assay"}, "sigma-2 receptor (σ 2)": {"biological_target": "T1, sigma-2 receptor (σ 2) (Rattus norvegicus, UniProt Q5U3Y7)", "T1 sequence (Q5U3Y7 1-176)": "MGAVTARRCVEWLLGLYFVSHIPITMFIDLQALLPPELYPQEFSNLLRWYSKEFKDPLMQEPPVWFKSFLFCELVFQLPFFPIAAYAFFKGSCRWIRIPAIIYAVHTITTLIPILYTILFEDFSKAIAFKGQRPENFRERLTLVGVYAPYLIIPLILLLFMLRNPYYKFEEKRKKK", "assay": "receptor binding assay"}, "male Swiss Webster mice [4]": {"tested_on": "male Swiss Webster mice", "assay": "forced-swim test", "type": "in vivo, mouse", "details": "20 mg/kg, i.p., relative to desipramine (20 mg/kg)"}, "male Swiss Webster mice [5]": {"tested_on": "male Swiss Webster mice", "assay": "locomotor activity test", "type": "in vivo, mouse", "details": "20 mg/kg, i.p."}}}
{"molecule": "Cc1nccc2c1C(C)(C)Nc1cc(Br)ccc1-2", "note": "[Veranamine]", "values": [{"measurement": "affinity for serotonin transporter", "setting": "[1]", "result": "no affinity"}, {"measurement": "affinity for norepinephrine transporter", "setting": "[2]", "result": "no affinity"}, {"measurement": "affinity for dopamine transporter", "setting": "[3]", "result": "no affinity"}, {"measurement": "binding to the sigma-2 receptor", "setting": "sigma-2 receptor (σ 2)", "result": "did not bind"}, {"measurement": "immobility time in mouse forced-swim test", "setting": "male Swiss Webster mice [4]", "result": "decreasing the immobility time significantly"}, {"measurement": "locomotor activity (nonspecific stimulant action)", "setting": "male Swiss Webster mice [5]", "result": "did not demonstrate nonspecific stimulant action"}]}
